Reference: patent US7875261B2, “Fluorinated resorufin compounds and their application” (Life Technologies Corporation, priority 2003, dated 2011)
One block for each compound: values may come before it.

How the values were obtained:
[1] = molecular target: T1, horseradish peroxidase (HRP) (Armoracia rusticana, UniProt P00433); test: Detection of horseradish peroxidase activity at acidic pH; type: biochemical; details: for Z-factor: pH 5.5, 50 μM H2O2, 60 minutes at 30° C.; for Lower limit of detection of HRP activity: pH 5.5, dye as reporting fluorogenic substrate
T1 sequence (P00433 31-338): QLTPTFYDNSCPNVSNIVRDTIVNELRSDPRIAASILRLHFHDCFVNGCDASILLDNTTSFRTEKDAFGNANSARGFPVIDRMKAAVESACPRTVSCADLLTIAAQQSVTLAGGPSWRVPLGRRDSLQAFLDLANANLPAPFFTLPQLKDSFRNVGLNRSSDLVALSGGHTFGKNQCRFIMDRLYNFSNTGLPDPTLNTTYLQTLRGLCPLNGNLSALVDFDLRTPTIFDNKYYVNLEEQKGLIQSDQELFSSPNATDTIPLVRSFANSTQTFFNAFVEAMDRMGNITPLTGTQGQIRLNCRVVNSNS
Procedure: A dilution series of horseradish peroxidase (HRP; EC 1.11.1.7) was prepared in 0.1 M sodium acetate, pH 5.5. The enzyme dilutions were added to a CoStar 96-well round bottom plate in 50 μL aliquots. Mixtures containing 100 μM hydrogen peroxide (H2O2), 0.1 M sodium acetate, pH 5.5, and 100 μM Amplex Red or 100 μM Compound 4 were prepared, and reactions were initiated by addition of 50 μL of reagent mixture to the enzyme dilution series. Reactions were done in triplicate, for 60 minutes at 30° C. Fluorescence was measured with a CytoFluor® Series 4000 Multi-Well Plate Reader (PerSeptive Biosystems, Framingham, Mass.), 530+/−12.5 nm excitation, 580+/−25 nm emission. The fluorescent signal was graphed as a function of HRP concentration (See, FIG. 9) and the Z-factor (Table 6) was calculated according to Zhang et al. (1999).

[2] = molecular target: T2, COX-2 (Mus musculus, UniProt Q05769); test: Detection of LPS-induced COX-2 activity in RAW 264.7 cell lysate; type: biochemical; details: 40 μM dye, 80 μM arachidonic acid, 200,000 lysed cell equivalents, 37° C., twenty minutes, FIG. 7
T2 construct: RAW 264.7 mouse macrophage cells (ATCC # TIB-71) were grown overnight; endogenous in cells; host or cells: RAW 264.7 mouse macrophage cells (ATCC TIB-71), LPS-treated, sonicated lysate
T2 sequence (Q05769 18-604): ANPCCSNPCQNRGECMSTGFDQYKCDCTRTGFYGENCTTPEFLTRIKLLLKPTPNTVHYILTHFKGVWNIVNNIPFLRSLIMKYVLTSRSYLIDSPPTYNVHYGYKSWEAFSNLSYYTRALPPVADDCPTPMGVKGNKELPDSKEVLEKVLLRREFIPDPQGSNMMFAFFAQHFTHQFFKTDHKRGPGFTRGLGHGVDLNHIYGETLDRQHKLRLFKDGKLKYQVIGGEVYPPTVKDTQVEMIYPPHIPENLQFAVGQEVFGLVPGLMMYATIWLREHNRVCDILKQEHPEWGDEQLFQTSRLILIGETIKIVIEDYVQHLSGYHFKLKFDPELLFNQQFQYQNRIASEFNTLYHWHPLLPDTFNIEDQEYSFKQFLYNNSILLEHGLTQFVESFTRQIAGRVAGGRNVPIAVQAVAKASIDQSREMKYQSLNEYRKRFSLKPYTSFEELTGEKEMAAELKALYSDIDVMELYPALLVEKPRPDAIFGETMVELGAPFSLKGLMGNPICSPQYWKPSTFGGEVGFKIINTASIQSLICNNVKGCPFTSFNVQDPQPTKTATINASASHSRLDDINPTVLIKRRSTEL
Procedure: The following morning the old media was removed and replaced with 12 ml fresh, warm, DMEM+10% FBS. To one plate, 12 μl of 100 μg/ml lipopolysaccaride (LPS) from E. coli strain 055:B5 (Sigma, catalog #L2880) in water was added. To the other plate, 12 μl of water alone was added. Both plates were incubated for 8 hours, 37° C., 5% CO2. The cells from each plate were gently resuspended into ice-cold 100 mM Tris, pH 7.5 to 4000 cells/μl (counted by hemocytometer). Both batches of cells were lysed with a probe sonicator for 40 seconds with a 30% duty cycle using power output of 3 on a scale of 1 to 10. 50 μl of the resulting cell lysates were added to a 96-well microplate. […] The plate was incubated at room temperature (˜24° C.) for 10 minutes to allow the COX-2 inhibitor time to inhibit the enzyme.
The resulting reactions were incubated at 37° C. in the dark for twenty minutes. At that point, the resulting fluorescence was measured on a PerSeptive Biosystems CytoFluor 4000 microtiter plate reader (Framingham, Mass.). The excitation filter was 530 nm (+/−12.5 nm) and the emission filter 590 nm (+/−17.5 nm), with a gain setting of 50.

[3] = molecular target: T3, Myeloperoxidase (Homo sapiens, UniProt P05164); test: Detection of myeloperoxidase; type: biochemical; details: 125 μM Compound 4, 50 μM hydrogen peroxide, PBS, 37° C.
T3 construct: purchased Sigma M-6908
T3 sequence (P05164 49-745): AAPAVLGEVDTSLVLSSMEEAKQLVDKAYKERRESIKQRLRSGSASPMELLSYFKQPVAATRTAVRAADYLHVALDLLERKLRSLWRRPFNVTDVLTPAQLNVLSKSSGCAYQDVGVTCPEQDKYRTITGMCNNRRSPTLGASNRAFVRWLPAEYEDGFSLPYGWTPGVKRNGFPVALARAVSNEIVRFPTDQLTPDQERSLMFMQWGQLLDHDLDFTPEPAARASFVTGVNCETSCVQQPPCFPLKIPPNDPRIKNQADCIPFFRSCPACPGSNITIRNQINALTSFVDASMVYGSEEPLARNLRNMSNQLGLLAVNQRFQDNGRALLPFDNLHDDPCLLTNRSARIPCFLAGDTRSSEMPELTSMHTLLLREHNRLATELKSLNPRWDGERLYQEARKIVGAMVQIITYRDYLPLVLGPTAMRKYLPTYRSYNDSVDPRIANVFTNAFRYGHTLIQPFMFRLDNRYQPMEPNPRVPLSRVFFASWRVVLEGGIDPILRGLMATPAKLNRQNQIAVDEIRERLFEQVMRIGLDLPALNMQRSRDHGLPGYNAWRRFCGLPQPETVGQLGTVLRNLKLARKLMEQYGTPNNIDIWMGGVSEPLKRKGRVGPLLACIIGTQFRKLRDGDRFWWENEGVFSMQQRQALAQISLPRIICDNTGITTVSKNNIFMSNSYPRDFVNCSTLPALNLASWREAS
Procedure: Myeloperoxidase (Sigma # M-6908) was diluted to 1 unit/mL using phosphate buffered saline (PBS, 50 mM sodium phosphate, pH 7.4, 150 mM sodium chloride). The solution was then serially diluted two fold using the same buffer. 50 μL of the preparations were added in a 96-well microplate (Nunc # 449824). 20 μL of 625 μM Compound 4 and 30 μl of 165 μM hydrogen peroxide (Aldrich # 323381) in PBS were added to all wells. The final reagent concentration in the wells was zero to 0.5 U/mL myeloperoxidase, 125 μM Compound 4 and 50 μM hydrogen peroxide in 100 μl of PBS.
The resulting reactions were incubated at 37° C. in a PerSeptive Biosystems CytoFluor 4000 microtiter plate reader (Framingham, Mass.). The excitation filter was 530 nm (+/−12.5 nm) and the emission filter 580 nm (+/−25 nm), with a gain setting of 35. Fluorescence was read every five minutes for up to 30 minutes.

[4] = molecular target: T4, Recombinant human cyclooxygenase-2 (COX-2) (Homo sapiens, UniProt P35354); test: Cyclooxygenase-2 assay; type: biochemical; details: 50 μM dye, 100 μM arachidonic acid, 2 μM hemin, 37° C., thirty minutes, FIG. 2
T4 construct: purchased Cayman Chemical
T4 sequence (P35354 18-604): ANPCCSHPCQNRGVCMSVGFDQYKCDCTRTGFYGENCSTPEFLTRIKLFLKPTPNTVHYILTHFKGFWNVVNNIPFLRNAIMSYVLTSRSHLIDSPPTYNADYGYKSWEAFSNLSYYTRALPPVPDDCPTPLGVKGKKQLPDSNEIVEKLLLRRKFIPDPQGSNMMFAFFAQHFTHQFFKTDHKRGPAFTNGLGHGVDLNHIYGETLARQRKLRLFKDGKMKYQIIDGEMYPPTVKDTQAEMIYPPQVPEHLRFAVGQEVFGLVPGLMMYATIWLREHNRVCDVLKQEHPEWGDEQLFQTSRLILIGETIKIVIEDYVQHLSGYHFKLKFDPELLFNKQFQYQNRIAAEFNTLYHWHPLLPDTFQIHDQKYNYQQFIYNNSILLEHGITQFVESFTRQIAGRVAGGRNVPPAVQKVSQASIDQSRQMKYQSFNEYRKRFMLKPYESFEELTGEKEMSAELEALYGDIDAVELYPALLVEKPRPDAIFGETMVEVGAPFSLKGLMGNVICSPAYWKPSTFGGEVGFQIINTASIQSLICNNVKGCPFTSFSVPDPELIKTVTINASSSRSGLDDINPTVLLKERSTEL
Procedure: Amplex Red (Molecular Probes, Inc. A-12222) and Compound 4 were resuspended to 10 mM in dry DMSO. Recombinant human cyclooxygenase-2 (COX-2, from Cayman Chemical) was serially diluted (in triplicate for each dye) two-fold in a 96-well microplate in 50 μl of 100 mM Tris, pH 8.0. 10 μl of 20 μM hemin (a COX-2 cofactor) in 100 mM Tris, pH 8.0 was added to all wells. After a five minute incubation at room temperature to allow the hemin to interact with the COX-2 enzyme, 40 μl of either 125 μM Amplex Red+250 μM arachidonic acid or 125 μM Compound 4+250 μM arachidonic acid in 100 mM Tris, pH 8.0 was added to all wells. The final reagent concentrations in the wells was zero to 50 Units/ml COX-2, 2 μM hemin, 100 μM arachidonic acid, and 50 μM Amplex Red reagent or Compound 4 in 100 μl of 100 mM Tris, pH 8.0.
(§1) The resulting reactions were incubated at 37° C. in the dark for thirty minutes. At that point, the resulting fluorescence was measured on a PerSeptive Biosystems CytoFluor 4000 microtiter plate reader (Framingham, Mass.). The excitation filter was 530 nm (+/−12.5 nm) and the emission filter 590 nm (+/−17.5 nm), with a gain setting of 40.

[5] = molecular target: T5, Bovine hemoglobin (Bos taurus, UniProt P01966+P02070); test: Hemoglobin assay; type: biochemical; details: 50 μM dye, 50 μM H2O2, 37° C., thirty minutes, FIG. 3
T5 construct: purchased Sigma H-2500
T5 sequence (P01966 2-142 limits assumed): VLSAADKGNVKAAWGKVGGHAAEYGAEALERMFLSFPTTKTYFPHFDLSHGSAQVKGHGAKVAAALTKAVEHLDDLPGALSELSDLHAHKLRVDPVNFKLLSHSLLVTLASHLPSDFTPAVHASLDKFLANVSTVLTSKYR
T5 sequence (P02070 whole entry): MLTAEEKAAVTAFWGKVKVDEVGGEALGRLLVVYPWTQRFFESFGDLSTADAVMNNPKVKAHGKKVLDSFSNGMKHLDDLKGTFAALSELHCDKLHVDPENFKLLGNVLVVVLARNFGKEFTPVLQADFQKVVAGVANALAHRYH
Procedure: Amplex Red (Molecular Probes Inc. A-12222) and Compound 4 were each resuspended to 10 mM in dry DMSO. Bovine hemoglobin (Sigma, catalog #H-2500) was serially diluted (in triplicate for each dye) two-fold in a 96-well microplate in 50 μl of 50 mM Tris, pH 7.5. 50 μl of either 100 μM Amplex Red+100 μM H2O2 or 100 μM Compound 4+100 μM H2O2 in 50 mM Tris, pH 7.5 was added to all wells. The final reagent concentrations in the wells was zero to 2000 ng/ml bovine hemoglobin, 50 μM H2O2, and 50 μM Amplex Red or Compound 4 in 100 μl of […], pH 7.5.
as §1

[6] = Photostability study (continuous irradiation in a spectrofluorimeter); type: physicochemical; details: solutions matched by optical density 0.03 at 560 nm, aqueous buffer pH 9, continuous irradiation at 560 nm
Procedure: For example, solutions of each were matched by optical density (0.03 at 560 nm in aqueous buffer at pH 9), then continuously irradiated in a spectrofluorimeter at 560 nm for 30 minutes. Over the duration of the experiment, resorufin photobleached to a greater extent than any of the fluorinated analogs.

Structure (SMILES): CC(=O)N1c2ccc(O)cc2Oc2cc(O)ccc21 [Amplex Red, reference compound]
Z-factor ([1]; HRP 0.016 units/mL): 1.30 | Z-factor ([1]; HRP 0.063 units/mL): 0.51 | Z-factor ([1]; HRP 0.125 units/mL): 0.69 | Z-factor ([1]; HRP 0.25 units/mL): 0.85 | Lower limit of detection of HRP activity [1]: 0.032 units/mL

Relative fluorescent signal compared with Amplex Red [2]: stronger relative fluorescent signal | Limit of detection of myeloperoxidase [3]: about 9.6 ng/mL | Limit of detection of myeloperoxidase ([3]; FIG. 10): 0.0078 U/mL | Fluorescent signal compared with Amplex Red [4]: greater fluorescent intensity signal | Fluorescence brightness compared with Amplex Red [5]: brighter | Z-factor ([1]; HRP 0.016 units/mL): 0.72 | Z-factor ([1]; HRP 0.032 units/mL): 0.89 | Z-factor ([1]; HRP 0.063 units/mL): 0.90 | Z-factor ([1]; HRP 0.125 units/mL): 0.81 | Z-factor ([1]; HRP 0.25 units/mL): 0.89 | Signal strength and dynamic range compared with Amplex Red ([1]; pH 5.5, FIG. 9): significantly greater | Lower limit of detection of HRP activity [1]: less than 0.016 units/mL
Structure (SMILES): CC(=O)N1c2cc(F)c(O)cc2Oc2cc(O)c(F)cc21 [Compound 4, 2,8-Difluoro-10-acetyl-3,7-dihydroxyphenoxazine]

Fluorescence remaining after irradiation for 30 minutes at 560 nm [6]: 96%
Structure (SMILES): O=c1ccc2nc3cc(F)c(O)c(F)c3oc-2c1 [Compound 5]

Fluorescence remaining after irradiation for 30 minutes at 560 nm [6]: 97%
Structure (SMILES): O=c1ccc2nc3ccc(O)c(F)c3oc-2c1 [Compound 6]

Fluorescence remaining after irradiation for 30 minutes at 560 nm [6]: 94%
Structure (SMILES): O=c1ccc2nc3cc(F)c(O)cc3oc-2c1 [Compound 7]

Fluorescence remaining after irradiation for 30 minutes at 560 nm [6]: 95%
Structure (SMILES): O=c1ccc2nc3c(F)cc(O)cc3oc-2c1 [Compound 8]

Fluorescence remaining after irradiation for 30 minutes at 560 nm [6]: 98%
Structure (SMILES): O=c1ccc2nc3c(F)c(F)c(O)c(F)c3oc-2c1 [Compound 9]

Fluorescence remaining after irradiation for 30 minutes at 560 nm [6]: 91%
Structure (SMILES): O=c1ccc2nc3ccc(O)cc3oc-2c1 [resorufin]
